Data taken from patent US8071735B2, “Cotton event MON 88913 and compositions and methods for detection thereof” (priority 2003, dated 2011).

How the values were obtained:
[1] = tested on: Roundup Ready cotton event 1445; experiment: Field trial, cotton lint yield after glyphosate treatment (10 locations); type: in vivo, Gossypium hirsutum
Source text: (§1) The field trials were arranged in a randomized split plot design with three replications and three treatments. The events were planted in two row, 30-foot plots. The treatments consisted of unsprayed, 64 oz/A (1.5 lb ae/A) Roundup Ultra® at the 4, 6, 10, 14-node stages, and 96 oz/A (2.25 lb ae/A) Roundup Ultra® at the 4, 6, 10, 14-node stages. A mid-season plant map was completed on ten plants per plot. Boll retention data was collected for the first and second fruiting positions of the first five fruiting nodes that provides a boll retention value scale of 0-10. A plant with a boll retention value equal to or greater than 3 on the 0-10 scale has value as a new glyphosate tolerant plant selection.
(§2) Yield is a measure of boll retention, cotton plants engineered for glyphosate tolerance that retain a substantial number of bolls in the first and second fruiting positions will maintain a yield advantage over cotton plants that are not as glyphosate tolerant. An effective dose of a glyphosate containing herbicide to control weeds in a field of MON 88913 comprises about 4 oz/A and may exceed 128 oz/A depending on the species of weed to be controlled and the stage of weed development. Glyphosate can be mixed with other herbicides to enhance the herbicidal activity against certain weed species.

cotton event MON 88913 = experiment: as above; type: in vivo, Gossypium hirsutum
Source text: as §1, §2

[2] = glyphosate 1.5 lb ae/A (64 oz/A Roundup Ultra) at the 4, 6, 10, 14-node stages
[3] = glyphosate 2.25 lb ae/A (96 oz/A Roundup Ultra) at the 4, 6, 10, 14-node stages

`O=C(O)CNCP(=O)(O)O` [Glyphosate, N-phosphonomethylglycine] was tested. Which “Yield (lb/A) of 10 Locations, cotton lint” value (shortened to “Yield (lb/A) of 10 Locations”) [1, 2] did it give?
Its value is 1044.19 lb/A.

What about the “Yield (lb/A) of 10 Locations” value [1, 3] of the same compound?
Its value is 831.47 lb/A.

What about the “Yield (lb/A) of 10 Locations” value (cotton event MON 88913; [2]) of the same compound?
The value was 2587.61 lb/A.

And the “Yield (lb/A) of 10 Locations” value (cotton event MON 88913; [3])?
The value was 2412.3 lb/A.
